In paper PMC6934184, “Selective DNA-PKcs inhibition extends the therapeutic index of localized radiotherapy and chemotherapy” (The Journal of Clinical Investigation, 2019):

Target: T1, MAPK15 (ERK7) (Homo sapiens, UniProt Q8TD08)
T1 construct: purchased Thermo Fisher Scientific (Life Technologies) SelectScreen
Assay: SelectScreen LanthaScreen
Type: binding
Conditions: read-out: % displacement
In short: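 NU5455 was profiled across the SelectScreen Broad panel of kinase activity and binding assays. Z'LYTE reactions such as CSF1R ran at apparent Km ATP, while the Adapta CAMK1 assay used ATP listed as 10. Values are given as percent.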

T1 sequence (Q8TD08 whole entry): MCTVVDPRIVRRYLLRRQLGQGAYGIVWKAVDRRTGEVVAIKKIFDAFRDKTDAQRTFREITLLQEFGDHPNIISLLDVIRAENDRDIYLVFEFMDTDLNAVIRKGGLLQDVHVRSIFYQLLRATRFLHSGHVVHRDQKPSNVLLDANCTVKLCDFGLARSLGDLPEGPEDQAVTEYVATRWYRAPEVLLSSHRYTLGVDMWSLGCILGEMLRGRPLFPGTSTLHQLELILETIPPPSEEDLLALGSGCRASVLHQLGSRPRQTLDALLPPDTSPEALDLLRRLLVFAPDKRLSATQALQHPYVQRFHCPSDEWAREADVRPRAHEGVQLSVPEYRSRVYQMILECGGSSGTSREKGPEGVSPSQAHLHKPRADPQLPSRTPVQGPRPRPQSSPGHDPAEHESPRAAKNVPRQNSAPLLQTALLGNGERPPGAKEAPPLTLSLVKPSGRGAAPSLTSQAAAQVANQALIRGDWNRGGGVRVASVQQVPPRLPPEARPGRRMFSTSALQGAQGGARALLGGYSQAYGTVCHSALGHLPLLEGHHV

CN(C(=O)CN1CCOCC1)c1ccc2sc3c(-c4cccc5c(=O)cc(N6CC7CCC(C6)O7)oc45)cccc3c2c1 [NU5455]
inhibition at 1 µM: 3.6%
